PubChem BioAssay AID226 (DTP/NCI, 2004)
Where “and” joins values, the source holds several entries; their conditions need not be identical. Equal values may be shown once. Inconclusive results and toxic doses are left out.

Tested on: B6C3F1 mice, intracerebral ependymoblastoma, median survival T/C
Assay: NCI In Vivo Anticancer Drug Screen. Data for tumor model Ependymoblastoma (intracerebral) in B6C3F1 mice
Settings: endpoint: median survival time, higher = longer survival
Experimental: The antitumor activity of compounds was measured in mice bearing transplantable tumors. Survival or tumor size were measured and the results are expressed as the measurement made in the treated group (T) divided by the measurement made in the vehicle treated control group (C). The tumor model used in this assay is Ependymoblastoma (intracerebral) in B6C3F1 mice

[1] = dose: 16.0 mg/kg/injection, schedule: Q01DX005 (ip), vehicle: saline
[2] = dose: 32.0 mg/kg/injection, schedule: Q01DX005 (ip), vehicle: saline
[3] = dose: 64.0 mg/kg/injection, schedule: Q01DX005 (ip), vehicle: saline
[4] = dose: 12.5 mg/kg/injection, schedule: Q01DX005 (ip), vehicle: saline with Tween-80
[5] = dose: 25.0 mg/kg/injection, schedule: Q01DX005 (ip), vehicle: saline with Tween-80
[6] = dose: 50.0 mg/kg/injection, schedule: Q01DX005 (ip), vehicle: saline with Tween-80
[7] = dose: 100.0 mg/kg/injection, schedule: Q01DX005 (ip), vehicle: saline with Tween-80
[8] = dose: 32.0 mg/kg/injection, schedule: Q01DX005 (ip), vehicle: Klucel (hydroxypropylcellulose) (HPC)
[9] = dose: 64.0 mg/kg/injection, schedule: Q01DX005 (ip), vehicle: Klucel (hydroxypropylcellulose) (HPC)
[10] = dose: 8.0 mg/kg/injection, schedule: Q01DX005 (ip), vehicle: Klucel (hydroxypropylcellulose) (HPC)
[11] = dose: 8.0 mg/kg/injection, schedule: Q01DX005 (ip), vehicle: saline with Tween-80
[12] = dose: 16.0 mg/kg/injection, schedule: Q01DX005 (ip), vehicle: Klucel (hydroxypropylcellulose) (HPC)
[13] = dose: 16.0 mg/kg/injection, schedule: Q01DX005 (ip), vehicle: saline with Tween-80
[14] = dose: 32.0 mg/kg/injection, schedule: Q01DX005 (ip), vehicle: saline with Tween-80
[15] = dose: 64.0 mg/kg/injection, schedule: Q01DX005 (ip), vehicle: saline with Tween-80
[16] = dose: 128.0 mg/kg/injection, schedule: Q01DX005 (ip), vehicle: saline

For `CCC(C)Sc1nc(N)nc2c1ncn2C1OC(CO)C(O)C1O` (configuration not stated), the T/C (dose: 37.5 mg/kg/injection, schedule: Q01DX005 (ip), vehicle: Klucel (hydroxypropylcellulose) (HPC)) was 97 % of control and 119 % of control, the T/C (dose: 75.0 mg/kg/injection, schedule: Q01DX005 (ip), vehicle: Klucel (hydroxypropylcellulose) (HPC)) was 113 % of control and 116 % of control and the T/C (dose: 150.0 mg/kg/injection, schedule: Q01DX005 (ip), vehicle: Klucel (hydroxypropylcellulose) (HPC)) was 115 % of control. For the same compound, the T/C (dose: 300.0 mg/kg/injection, schedule: Q01DX005 (ip), vehicle: Klucel (hydroxypropylcellulose) (HPC)) was 95 % of control and 113 % of control.
For `F`, the T/C [1] was 112 % of control, the T/C [2] was 107 % of control and the T/C [3] was 105 % of control.
With `O=[n+]1c2ccccc2n([O-])c2cc(Cl)ccc21` the T/C [4] was 100 % of control, the T/C [5] was 106 % of control and the T/C [6] was 95 % of control. For the same compound, the T/C [7] was 89 % of control.
For `NC(CSC(c1ccccc1)(c1ccccc1)c1ccccc1)C(=O)O` (configuration not stated), the T/C [8] was 107 % of control, the T/C [9] was 107 % of control and the T/C (dose: 512.0 mg/kg/injection, schedule: Q01DX001 (ip), vehicle: Klucel (hydroxypropylcellulose) (HPC)) was 108 % of control. For the same compound, the T/C (dose: 516.0 mg/kg/injection, schedule: Q01DX001 (ip), vehicle: Klucel (hydroxypropylcellulose) (HPC)) was 86 % of control.
`CCOC(=O)C(CC(C)C)NC(=O)C(Cc1ccc(N(CCCl)CCCl)cc1)NC(C)=O` (configuration not stated) was tested, and the T/C (dose: 1.0 mg/kg/injection, schedule: Q01DX005 (ip), vehicle: Klucel (hydroxypropylcellulose) (HPC)) was 87 % of control, the T/C (dose: 2.0 mg/kg/injection, schedule: Q01DX005 (ip), vehicle: Klucel (hydroxypropylcellulose) (HPC)) was 95 % of control and the T/C (dose: 4.0 mg/kg/injection, schedule: Q01DX005 (ip), vehicle: Klucel (hydroxypropylcellulose) (HPC)) was 97 % of control and 106 % of control and 113 % of control. The T/C (dose: 4.0 mg/kg/injection, schedule: Q01DX005 (ip), vehicle: saline with Tween-80) was 104 % of control and 108 % of control, the T/C [10] was 97 % of control and 102 % of control and 107 % of control and the T/C [11] was 101 % of control and 104 % of control. For the same compound, the T/C [12] was 100 % of control and 102 % of control and 105 % of control, the T/C [13] was 98 % of control and 105 % of control and the T/C [8] was 105 % of control and 109 % of control and 110 % of control. The T/C [14] was 106 % of control, the T/C [9] was 115 % of control and the T/C [15] was 163 % of control.
For `Nc1ccn(C2OC(COP(=O)(O)O)C(O)C2O)c(=O)n1` (configuration not stated), the T/C [1] was 96 % of control, the T/C [2] was 95 % of control and the T/C [3] was 107 % of control. The T/C [16] was 112 % of control.
With `ClC1=C(Cl)C2(Cl)C3C(Cl)C(Cl)CC3C1(Cl)C2(Cl)Cl` (configuration not stated) the T/C (dose: 6.0 mg/kg/injection, schedule: Q01DX005 (ip), vehicle: saline with Tween-80) was 99 % of control and 100 % of control and 105 % of control, the T/C (dose: 6.25 mg/kg/injection, schedule: Q01DX005 (ip), vehicle: other) was 101 % of control and the T/C (dose: 12.0 mg/kg/injection, schedule: Q01DX005 (ip), vehicle: saline with Tween-80) was 95 % of control and 96 % of control and 105 % of control. For the same compound, the T/C (dose: 12.5 mg/kg/injection, schedule: Q01DX005 (ip), vehicle: other) was 108 % of control, the T/C (dose: 24.0 mg/kg/injection, schedule: Q01DX005 (ip), vehicle: saline with Tween-80) was 96 % of control and 105 % of control and 87 % of control and the T/C (dose: 25.0 mg/kg/injection, schedule: Q01DX005 (ip), vehicle: other) was 98 % of control. For the same compound, the T/C (dose: 45.0 mg/kg/injection, schedule: Q01DX005 (ip), vehicle: saline with Tween-80) was 94 % of control and 101 % of control and 110 % of control, the T/C (dose: 50.0 mg/kg/injection, schedule: Q01DX005 (ip), vehicle: other) was 109 % of control and the T/C (dose: 90.0 mg/kg/injection, schedule: Q01DX005 (ip), vehicle: saline with Tween-80) was 101 % of control and 86 % of control and 89 % of control.
With `CC(C)(N)C(=O)O` the T/C [4] was 103 % of control, the T/C [5] was 114 % of control and the T/C [6] was 114 % of control. The T/C [7] was 105 % of control, the T/C (dose: 200.0 mg/kg/injection, schedule: Q01DX005 (ip), vehicle: saline with Tween-80) was 97 % of control and the T/C (dose: 400.0 mg/kg/injection, schedule: Q01DX005 (ip), vehicle: saline with Tween-80) was 95 % of control. For the same compound, the T/C (dose: 800.0 mg/kg/injection, schedule: Q01DX005 (ip), vehicle: saline with Tween-80) was 98 % of control and the T/C (dose: 1600.0 mg/kg/injection, schedule: Q01DX005 (ip), vehicle: saline with Tween-80) was 116 % of control.
In the case of `CC(=O)OCC1OC(n2cnc3c(=S)nc[nH]c32)C(OC(C)=O)C1OC(C)=O` (configuration not stated), the T/C (dose: 50.0 mg/kg/injection, schedule: Q01DX005 (ip), vehicle: suspension in saline) was 100 % of control, the T/C (dose: 100.0 mg/kg/injection, schedule: Q01DX005 (ip), vehicle: suspension in saline) was 111 % of control and the T/C (dose: 200.0 mg/kg/injection, schedule: Q01DX005 (ip), vehicle: suspension in saline) was 108 % of control.
In the case of `CN(CCO)/N=N/c1nc[nH]c1C(N)=O`, the T/C [2] was 116 % of control, the T/C [3] was 109 % of control and 112 % of control and the T/C [16] was 114 % of control. For the same compound, the T/C (dose: 256.0 mg/kg/injection, schedule: Q01DX005 (ip), vehicle: saline) was 124 % of control.
For `NC(=O)c1cn(C2OC(CO)C(O)C2O)c2ncnc(N)c12` (configuration not stated), the T/C (dose: 0.38 mg/kg/injection, schedule: Q01DX005 (ip), vehicle: Klucel (hydroxypropylcellulose) (HPC)) was 92 % of control, the T/C (dose: 0.75 mg/kg/injection, schedule: Q01DX005 (ip), vehicle: Klucel (hydroxypropylcellulose) (HPC)) was 90 % of control and the T/C (dose: 1.5 mg/kg/injection, schedule: Q01DX005 (ip), vehicle: Klucel (hydroxypropylcellulose) (HPC)) was 103 % of control. For the same compound, the T/C (dose: 3.0 mg/kg/injection, schedule: Q01DX005 (ip), vehicle: Klucel (hydroxypropylcellulose) (HPC)) was 94 % of control.
`CCC(=O)O[C@H]1CC[C@H]2[C@@H]3CC[C@H]4CC(=O)[C@H](C)C[C@]4(C)[C@H]3CC[C@]12C` was tested, and the T/C [10] was 95 % of control and 102 % of control, the T/C [11] was 98 % of control and 108 % of control and the T/C [12] was 90 % of control and 101 % of control. For the same compound, the T/C [13] was 95 % of control and 96 % of control, the T/C [8] was 97 % of control and 99 % of control and the T/C [14] was 103 % of control and 107 % of control. The T/C [9] was 95 % of control and 101 % of control, the T/C [15] was 98 % of control and 111 % of control and the T/C (dose: 128.0 mg/kg/injection, schedule: Q01DX005 (ip), vehicle: Klucel (hydroxypropylcellulose) (HPC)) was 98 % of control and 87 % of control. For the same compound, the T/C (dose: 128.0 mg/kg/injection, schedule: Q01DX005 (ip), vehicle: saline with Tween-80) was 106 % of control and 108 % of control, the T/C (dose: 256.0 mg/kg/injection, schedule: Q01DX005 (ip), vehicle: Klucel (hydroxypropylcellulose) (HPC)) was 93 % of control and 87 % of control and the T/C (dose: 256.0 mg/kg/injection, schedule: Q01DX005 (ip), vehicle: saline with Tween-80) was 97 % of control and 113 % of control. For the same compound, the T/C (dose: 512.0 mg/kg/injection, schedule: Q01DX005 (ip), vehicle: Klucel (hydroxypropylcellulose) (HPC)) was 87 % of control and the T/C (dose: 512.0 mg/kg/injection, schedule: Q01DX005 (ip), vehicle: saline with Tween-80) was 97 % of control and 101 % of control.
For `CC([NH-])C[NH-].[Cl][Pt+2][Cl]` (configuration not stated), the T/C (dose: 2.0 mg/kg/injection, schedule: Q01DX005 (ip), vehicle: dextrose) was 94 % of control.
`CC(CN1CC(=O)NC(=O)C1)N1CC(=O)NC(=O)C1` (configuration not stated) was tested, and the T/C (dose: 8.0 mg/kg/injection, schedule: Q01DX001 (ip), vehicle: Klucel (hydroxypropylcellulose) (HPC)) was 101 % of control and 102 % of control, the T/C (dose: 16.0 mg/kg/injection, schedule: Q01DX001 (ip), vehicle: Klucel (hydroxypropylcellulose) (HPC)) was 104 % of control and 86 % of control and the T/C (dose: 32.0 mg/kg/injection, schedule: Q01DX001 (ip), vehicle: Klucel (hydroxypropylcellulose) (HPC)) was 101 % of control and 102 % of control. The T/C (dose: 64.0 mg/kg/injection, schedule: Q01DX001 (ip), vehicle: Klucel (hydroxypropylcellulose) (HPC)) was 103 % of control and 109 % of control and the T/C (dose: 128.0 mg/kg/injection, schedule: Q01DX001 (ip), vehicle: Klucel (hydroxypropylcellulose) (HPC)) was 99 % of control and 103 % of control.
In the case of `O=NN(CCCl)C(=O)NC1CCCN(Cc2ccccc2)C1` (configuration not stated), the T/C (dose: 50.0 mg/kg/injection, schedule: Q01DX001 (ip), vehicle: distilled water + Tween-80) was 178 % of control and the T/C (dose: 100.0 mg/kg/injection, schedule: Q01DX001 (ip), vehicle: distilled water + Tween-80) was 223 % of control.
For `CNNCc1ccc(C(=O)NC(C)C)cc1`, the T/C [8] was 156 % of control and the T/C [9] was 155 % of control.
With `CCC(=O)OCC1OC(n2cnc3c(=S)nc(N)[nH]c32)C(OC(=O)CC)C1OC(=O)CC` (configuration not stated) the T/C (dose: 3.12 mg/kg/injection, schedule: Q01DX005 (ip), vehicle: Klucel (hydroxypropylcellulose) (HPC)) was 104 % of control, the T/C (dose: 6.25 mg/kg/injection, schedule: Q01DX005 (ip), vehicle: Klucel (hydroxypropylcellulose) (HPC)) was 110 % of control and the T/C (dose: 12.5 mg/kg/injection, schedule: Q01DX005 (ip), vehicle: Klucel (hydroxypropylcellulose) (HPC)) was 121 % of control. The T/C (dose: 25.0 mg/kg/injection, schedule: Q01DX005 (ip), vehicle: Klucel (hydroxypropylcellulose) (HPC)) was 120 % of control.
